Source: PMC8200971, “Design, Synthesis, Biological Evaluation and Silico Prediction of Novel Sinomenine Derivatives” (Molecules, 2021)
Where two headings read alike, the source gives them in different places.

Key:
[1] = tested on: Hek293 (human embryonic kidney cell lines); test: CCK8 cytotoxicity assay, normal cells; type: cell-based; conditions: for IC50: read-out: IC50 Hek293; for inhibition at 2.5 µM / inhibition at 25 µM: read-out: growth inhibition ratio (mean ± SD)
Procedure: (§1) Cytotoxicity screens were performed to assess the in vitro anticancer activity of the synthesized sinomenine derivatives 6a–6l on the various cancer cell lines MCF-7, Hela, SW480, and A549, as well as on Hek293 as a normal cell line, at doses of 2.5 and 25 μM. The obtained inhibition ratios data were used to construct a heat map (Figure 3, Tables S1 and S2) in order to select compounds that exert cancer cell line-specific cytotoxicity. Then, the IC50 values of the promising compound were determined. Cisplatin was used as a reference standard. The antiproliferative activity was based on the evaluation of the percent viability using the CCK8 assay, which is a rapid and sensitive method for determining the number of viable cells in culture. In the presence of electronic coupling reagents, WST-8 can be reduced by a dehydrogenase in the mitochondria to produce a highly water-soluble orange-yellow formazan product. Its color is proportional to the proliferation of the number of viable cells and is related to cytotoxicity. Using a microplate reader to measure the OD value can indirectly reflect the number of living cells at 450 nm wavelength.
(§2) To understand structure–function relationships, these selected compounds were subjected to subsequent analyses. All six compounds (6a and 6c–6g) were further examined to determine their IC50 concentrations on the previously mentioned cell lines, and their efficacy was compared to the reference drug cisplatin. For this, six compounds and cisplatin were evaluated on Hela, MCF-7, SW480, and A549, and on noncancerous Hek293 cell lines at various concentrations for 60 h. IC50 values were calculated (Table 2).
(§3) The MCF-7 (human breast cancer cell lines), Hela (human cervical cancer cell lines), SW480 (human colon adenocarcinoma cell lines), A549 (human lung adenocarcinoma cell lines) and nontoxic normal cells Hek293 (human embryonic kidney cell lines) cells were used to measure the cytotoxicity of the 6a–6l. They were obtained from the Beijing Normal University (Beijing, China). The test cell lines were cultured in DMEM, IMDM, F12 and DMEM nutrient medium containing 10% heat-inactivated fetal bovine serum, […] and 100 units/mL penicillin in a humified, 5% (v/v) CO2 atmosphere at 37 °C.
(§4) Cell viability was estimated using the CCK8 assay. Tumor cells ([…]) viz. MCF-7, Hela, SW480, A549 and nontoxic normal cells Hek293 were seeded in medium containing Corning® 96-well tissue culture plates at confluences of […], respectively, in Incucyte ZOOM. Fresh medium (100 μL) containing different concentrations of the test sample was added after 12 h of seeding. The microtiter plates were incubated at 37 °C in a humidified incubator with 5% CO2 for 60 h. Triplicates from each concentration were used. Negative control cells were incubated without sample and cisplatin as a positive control. At the end of treatment, the numbers of viable cells were determined by the CCK8 test. In brief, the media was removed from the 96 well plates and replaced with 100 μL of fresh culture medium with 10% CCK8 solution added to each well including the untreated controls. The 96 well plates were then incubated at 37 °C and 5% CO2 for 1–4 h. Then, the absorbance was measured at 450 nm using a BMG LABTECH®-POLAR star Omega microplate reader (Ortenberg, Germany) to determine the number of viable cells, and the percentage of viability was calculated as ((ODt- ODb/ODc- ODb)) × 100%, where ODt is the mean optical density of wells treated with the tested sample, ODc is the mean optical density of wells treated with DMSO and ODb is the mean optical density of PBS wells without cells. The relation between surviving cells and drug concentrations were plotted to get the survival curve of each tumor cell line after treatment with the specified compound. […]

[2] = tested on: SW480 (human colon adenocarcinoma cell lines); test: CCK8 cytotoxicity assay; type: cell-based; conditions: for IC50: read-out: IC50 SW480; for inhibition at 2.5 µM / inhibition at 25 µM: read-out: growth inhibition ratio (mean ± SD)
Procedure: as §1, §2, §3, §4

[3] = tested on: MCF-7 (human breast cancer cell lines); test: CCK8 cytotoxicity assay; type: cell-based; conditions: for IC50: read-out: IC50 MCF-7; for inhibition at 2.5 µM / inhibition at 25 µM: read-out: growth inhibition ratio (mean ± SD)
Procedure: as §1, §2, §3, §4

[4] = tested on: A549 (human lung adenocarcinoma cell lines); test: CCK8 cytotoxicity assay; type: cell-based; conditions: for IC50: read-out: IC50 A549; for inhibition at 2.5 µM / inhibition at 25 µM: read-out: growth inhibition ratio (mean ± SD)
Procedure: as §1, §2, §3, §4

[5] = tested on: Hela (human cervical cancer cell lines); test: CCK8 cytotoxicity assay; type: cell-based; conditions: for IC50: read-out: IC50 Hela; for inhibition at 2.5 µM / inhibition at 25 µM: read-out: growth inhibition ratio (mean ± SD)
Procedure: as §1, §2, §3, §4

[6] = CCK8, 60 h, mean ± SD of three independent experiments

Row | SMILES | melting point | IC50 ([1]; Homo sapiens, HEK293, 60 h) | inhibition at 2.5 µM ([1]; Homo sapiens, HEK293, 60 h) | inhibition at 25 µM ([1]; Homo sapiens, HEK293, 60 h) | IC50 ([2]; Homo sapiens, SW480, 60 h) | inhibition at 2.5 µM ([2]; Homo sapiens, SW480, 60 h) | inhibition at 25 µM ([2]; Homo sapiens, SW480, 60 h) | IC50 ([3]; Homo sapiens, MCF7, 60 h) | inhibition at 2.5 µM ([3]; Homo sapiens, MCF7, 60 h) | inhibition at 25 µM ([3]; Homo sapiens, MCF7, 60 h) | IC50 ([4]; Homo sapiens, A549, 60 h) | inhibition at 2.5 µM ([4]; Homo sapiens, A549, 60 h) | inhibition at 25 µM ([4]; Homo sapiens, A549, 60 h) | IC50 ([5]; Homo sapiens, HeLa, 60 h) | inhibition at 2.5 µM ([5]; Homo sapiens, HeLa, 60 h) | inhibition at 25 µM ([5]; Homo sapiens, HeLa, 60 h) | further results
1 | COC1=C[C@@H]2[C@@H]3Cc4c(CN5CCCCC5)cc(OC)c(OC(=O)Cc5ccc(OC)cc5)c4[C@]2(CCN3C)CC1=O [5h, (4bR,8aS,9S)-3,7-dimethoxy-11-methyl-6-oxo-1-(piperidin-1-ylmethyl)-6,8a,9,10-tetrahydro-5H-9,4b-(epiminoethano)phenanthren-4-yl 2-(4-methoxyphenyl)acetate] | 121 to 122 °C |  |  |  |  |  |  |  |  |  |  |  |  |  |  |  | 
2 | COC1=C[C@@H]2[C@@H]3Cc4c(CN5CCCCC5)cc(OC)c(OC(=O)Cc5ccc(F)cc5)c4[C@]2(CCN3C)CC1=O [5k, (4bR,8aS,9S)-3,7-dimethoxy-11-methyl-6-oxo-1-(piperidin-1-ylmethyl)-6,8a,9,10-tetrahydro-5H-9,4b-(epiminoethano)phenanthren-4-yl 2-(4-fluorophenyl)acetate] | 128 to 130 °C |  |  |  |  |  |  |  |  |  |  |  |  |  |  |  | 
3 | COC1=C[C@@H]2[C@@H]3Cc4c(CN5CCCC5)cc(OC)c(OC(=O)Cc5ccc(Cl)cc5)c4[C@]2(CCN3C)CC1=O [6a, (4bR,8aS,9S)-3,7-dimethoxy-11-methyl-6-oxo-1-(pyrrolidin-1-ylmethyl)-6,8a,9,10-tetrahydro-5H-9,4b-(epiminoethano)phenanthren-4-yl 2-(4-chlorophenyl)acetate] | 162 to 165 °C | 13 ± 0.62 µM | 17.9 ± 1.86% | 61.1 ± 4.71% | 14.94 ± 0.06 µM | 12.9 ± 6.52% | 82.3 ± 4.36% | 14.3 ± 0.83 µM | 0% | 85.3 ± 1.62% | > 25 µM | 3.41 ± 0.82% | 37.4 ± 0.39% | 11.5 ± 1.04 µM | 7.81 ± 5.42% | 88.49 ± 0.67% | 
4 | COC1=C[C@@H]2[C@@H]3Cc4c(CN5CCCC5)cc(OC)c(OC(=O)Cc5ccc(OC)c(OC)c5)c4[C@]2(CCN3C)CC1=O [6b, (4bR,8aS,9S)-3,7-dimethoxy-11-methyl-6-oxo-1-(pyrrolidin-1-ylmethyl)-6,8a,9,10-tetrahydro-5H-9,4b-(epiminoethano)phenanthren-4-yl 2-(3,4-dimethoxyphenyl)acetate] | 80 to 83 °C |  | 0.66 ± 1.14% | 45.9 ± 1.35% |  | 22.9 ± 6.49% | 29.5 ± 11.2% |  | 3.63 ± 3.16% | 2.7 ± 4.67% |  | 0% | 30.9 ± 0.32% |  | 2.03 ± 2.29% | 11.5 ± 4.88% | 
5 | COC1=C[C@@H]2[C@@H]3Cc4c(CN5CCCC5)cc(OC)c(OC(=O)Cc5ccccc5Cl)c4[C@]2(CCN3C)CC1=O [6c, (4bR,8aS,9S)-3,7-dimethoxy-11-methyl-6-oxo-1-(pyrrolidin-1-ylmethyl)-6,8a,9,10-tetrahydro-5H-9,4b-(epiminoethano)phenanthren-4-yl 2-(2-chlorophenyl)acetate] | 79 to 83 °C | 6.52 ± 0.19 µM | 13.8 ± 2.27% | 54.6 ± 2.29% | > 25 µM | 28.3 ± 6.91% | 58.4 ± 7.58% | > 25 µM | 0% | 42 ± 3.02% | 18.7 ± 0.7 µM | 16.3 ± 0.63% | 49.4 ± 0.59% | > 25 µM | 3.05 ± 3.91% | 53.5 ± 2.45% | 
6 | COC1=C[C@@H]2[C@@H]3Cc4c(CN5CCCC5)cc(OC)c(OC(=O)Cc5ccc(Cl)cc5Cl)c4[C@]2(CCN3C)CC1=O [6d, (4bR,8aS,9S)-3,7-dimethoxy-11-methyl-6-oxo-1-(pyrrolidin-1-ylmethyl)-6,8a,9,10-tetrahydro-5H-9,4b-(epiminoethano)phenanthren-4-yl 2-(2,4-dichlorophenyl)acetate] | 82 to 86 °C | 3.46 ± 0.02 µM | 42.6 ± 0.84% | 84.6 ± 4.34% | 6.08 ± 0.28 µM | 29.1 ± 6.92% | 94.2 ± 3.21% | 5.73 ± 0.36 µM | 0% | 88.6 ± 2.73% | 11.6 ± 1.61 µM | 29.59 ± 0.16% | 93.02 ± 0.2% | 8.2 ± 0.52 µM | 10.3 ± 4.44% | 93.1 ± 0.17% | 
7 | N.N.[Cl][Pt][Cl] [Cisplatin, reference compound] |  |  |  |  |  |  |  |  |  |  |  |  |  |  |  |  | IC50 ([1]; normal cell line, CCK8, 60 h, mean ± SD of three independent experiments): 3.19 ± 0.6 µM; IC50 [2, 6]: 1.98 ± 0.15 µM; IC50 [3, 6]: 3.45 ± 0.82 µM; IC50 [4, 6]: 14.3 ± 0.7 µM; IC50 [5, 6]: 4.57 ± 0.43 µM
